In one series the test system is Leukemia L1210. Kind of series: Activity against Leukemia L1210, intraperitoneal, increase in life span of mice. It is filed as in vivo, female mice (BDF1 family). Particulars: for ED (maximum ILS) / ED30: Mus musculus, L1210, ip, ip once a day for 5 successive days; for ED (maximum ILS): daily dosage giving maximum increase of life span, read-out: O.D. (optimum dosage); for ED30: daily dosage increasing average survival days by 30%, read-out: ILS30; for Survivors after 60 days / Max. ILS % / Therapeutic ratio TR: ip; for Survivors after 60 days: 6-membered group; for Max. ILS %: 60-day observation, versus control; for Therapeutic ratio TR: O.D./ILS30. The procedure, abridged:
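Female BDF1 mice (20 to 23 g; 6 per group) were implanted intraperitoneally with 1×10^5 L1210 cells, then dosed ip or orally once daily for 5 days starting 24 h later. Survival was followed over 60 days, and ILS% was derived from mean survival days versus untreated controls.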

Series [1] can be described thus: Acute toxicity (LD50, Behrens-Karber method). Format: in vivo, ICR mice. Particulars: mouse, in vivo, ip, mortality during 30 days. How it is done:
Test compounds, dissolved or suspended in 0.5% aqueous CMC, were each intraperitoneally administered to ICR mice in a dose of 0.1 ml per 10 g body weight. LD50 (mg/kg) value of each test compound was calculated from the mortality of mice during 30 days by the Behrens-Karber method.

The values that follow come from patent publication US4593090A, “Novel nitrosourea compounds, method for preparing same, and pharmaceutical composition containing same” (Gogo Kimura, priority 1981, dated 1986).

With `CC(C)COC1OC(CO)C(N(C(=O)N(CCCl)N=O)C(C)C)C(O)C1O` [Compound 92, 3-isopropyl-3-(isobutyl α-D-glucopyranose-4-yl)-1-(2-chloroethyl)-1-nitrosourea], in the series with Leukemia L1210, the ED (maximum ILS) worked out at 100 mg/kg, the ED30 is 3.14 mg/kg, the “Survivors after 60 days” value was 3/6 and the “Max. ILS %” value was more than 360%. Also, the “Therapeutic ratio TR” value in the series on Leukemia L1210 is given as 31.8. The compound further returned an LD50 at 720 h in series [1] of 335 mg/kg.

In the case of `CC(C)COC1OC(CO)C(N(CC2CC2)C(=O)N(CCCl)N=O)C(O)C1O` [Compound 95, 3-cyclopropylmethyl-3-(isobutyl α-D-glucopyranose-4-yl)-1-(2-chloroethyl)-1-nitrosourea], in the series on Leukemia L1210, the ED (maximum ILS) stood at 120 mg/kg, the ED30 was found to be 3.82 mg/kg, the “Survivors after 60 days” value is 3/6 and the “Max. ILS %” value was more than 360%. Also, the “Therapeutic ratio TR” value in the series on Leukemia L1210 was 31.4. Further, the LD50 at 720 h in series [1] came out at 400 mg/kg.

Turning to `CCC(C)OC1OC(CO)C(N(C(=O)N(CCCl)N=O)C(C)COC)C(O)C1O` [Compound 96, 3-(1-methyl-2-methoxyethyl)-3-(sec-butyl α-D-glucopyranose-4-yl)-1-(2-chloroethyl)-1-nitrosourea], in the series with Leukemia L1210, the ED (maximum ILS) came to 150 mg/kg, the ED30 was 4.46 mg/kg, the “Survivors after 60 days” value is given as 3/6 and the “Max. ILS %” value is more than 355%. The “Therapeutic ratio TR” value in the series with Leukemia L1210 was determined as 33.6. In addition, the LD50 at 720 h in series [1] amounted to 450 mg/kg.

As to `C=C(C)CN(C(=O)N(CCCl)N=O)C1C(CO)OC(OC2CCCCC2)C(O)C1O` [Compound 97, 3-(2-methyl-2-propenyl)-3-(cyclohexyl α-D-glucopyranose-4-yl)-1-(2-chloroethyl)-1-nitrosourea], in the series on Leukemia L1210, the ED (maximum ILS) was 120 mg/kg, the ED30 stood at 3.72 mg/kg, the “Survivors after 60 days” value is listed as 3/6 and the “Max. ILS %” value is on record as more than 360%. For the same compound, in the series with Leukemia L1210, the “Therapeutic ratio TR” value is on record as 32.3. For the same compound, in series [1], the LD50 at 720 h was 390 mg/kg.

For the compound `CCCN(C[C@H]1O[C@H](OC2CCCCC2)[C@H](O)[C@@H](O)[C@H]1O)C(=O)N(CCCl)N=O` [Compound 98, 3-n-propyl-3-(cyclohexyl α-D-galactopyranose-6-yl)-1-(2-chloroethyl)-1-nitrosourea], in the series on Leukemia L1210, the ED (maximum ILS) is 200 mg/kg, the ED30 worked out at 6.45 mg/kg, the “Survivors after 60 days” value is 3/6 and the “Max. ILS %” value was more than 350%. In addition, in the series with Leukemia L1210, the “Therapeutic ratio TR” value is 31.0. Moreover, the LD50 at 720 h in series [1] was found to be 600 mg/kg.

In the case of `CCCCN(C[C@H]1O[C@H](OC2CCCCC2)[C@H](O)[C@@H](O)[C@H]1O)C(=O)N(CCCl)N=O` [Compound 99, 3-n-butyl-3-(cyclohexyl α-D-galactopyranose-6-yl)-1-(2-chloroethyl)-1-nitrosourea], in the series on Leukemia L1210, the ED (maximum ILS) stood at 200 mg/kg, the ED30 was determined as 6.22 mg/kg, the “Survivors after 60 days” value is on record as 3/6 and the “Max. ILS %” value is listed as more than 330%. Further, the “Therapeutic ratio TR” value with Leukemia L1210 was determined as 32.2. Besides, in series [1], the LD50 at 720 h was found to be 630 mg/kg.

For the compound `CCCCCCN(C[C@H]1O[C@H](OC2CCCCC2)[C@H](O)[C@@H](O)[C@H]1O)C(=O)N(CCCl)N=O` [Compound 100, 3-n-hexyl-3-(cyclohexyl α-D-galactopyranose-6-yl)-1-(2-chloroethyl)-1-nitrosourea], in the series with Leukemia L1210, the ED (maximum ILS) turned out to be 200 mg/kg, the ED30 amounted to 6.41 mg/kg, the “Survivors after 60 days” value is on record as 3/6 and the “Max. ILS %” value is more than 330%. The “Therapeutic ratio TR” value with Leukemia L1210 worked out at 31.2. The same compound had an LD50 at 720 h in series [1] of 580 mg/kg.

In the case of `CCOCCN(C[C@H]1O[C@H](OC2CCCCC2)[C@H](O)[C@@H](O)[C@H]1O)C(=O)N(CCCl)N=O` [Compound 102, 3-(2-ethoxyethyl)-3-(cyclohexyl α-D-galactopyranose-6-yl)-1-(2-chloroethyl)-1-nitrosourea], in the series with Leukemia L1210, the ED (maximum ILS) was 200 mg/kg, the ED30 was found to be 3.81 mg/kg, the “Survivors after 60 days” value is on record as 5/6 and the “Max. ILS %” value is more than 625%. Besides, the “Therapeutic ratio TR” value in the series on Leukemia L1210 is 52.5. The 50% lethal dose (LD50) at 720 h in series [1] came out at 680 mg/kg.

For `COC(C)CN(C[C@H]1O[C@H](OC2CCCCC2)[C@H](O)[C@@H](O)[C@H]1O)C(=O)N(CCCl)N=O` (stereo partly drawn) [Compound 103, 3-(2-methoxy-n-propyl)-3-(cyclohexyl α-D-galactopyranose-6-yl)-1-(2-chloroethyl)-1-nitrosourea], in the series on Leukemia L1210, the ED (maximum ILS) turned out to be 200 mg/kg, the ED30 was 3.63 mg/kg, the “Survivors after 60 days” value is reported as 5/6 and the “Max. ILS %” value is on record as more than 625%. Moreover, the “Therapeutic ratio TR” value in the series with Leukemia L1210 is 55.1. Also, the LD50 at 720 h in series [1] amounted to 685 mg/kg.

For `COc1ccc(CN(C[C@H]2O[C@H](OC3CCCCC3)[C@H](O)[C@@H](O)[C@H]2O)C(=O)N(CCCl)N=O)cc1` [Compound 104, 3-(p-methoxybenzyl)-3-(cyclohexyl α-D-galactopyranose-6-yl)-1-(2-chloroethyl)-1-nitrosourea], in the series with Leukemia L1210, the ED (maximum ILS) turned out to be 200 mg/kg, the ED30 amounted to 6.61 mg/kg, the “Survivors after 60 days” value is 3/6 and the “Max. ILS %” value was more than 325%. Also, the “Therapeutic ratio TR” value in the series on Leukemia L1210 was 30.3. In series [1], this compound came in with a 50% lethal dose (LD50) at 720 h of 630 mg/kg.

Regarding `CCCCO[C@H]1O[C@H](CN(CCC)C(=O)N(CCCl)N=O)[C@H](O)[C@H](O)[C@H]1O` [Compound 106, 3-n-propyl-3-(n-butyl α-D-galactopyranose-6-yl)-1-(2-chloroethyl)-1-nitrosourea], in the series on Leukemia L1210, the ED (maximum ILS) turned out to be 160 mg/kg, the ED30 turned out to be 3.74 mg/kg, the “Survivors after 60 days” value was 3/6 and the “Max. ILS %” value is listed as more than 340%. Besides, the “Therapeutic ratio TR” value in the series with Leukemia L1210 came out at 42.8. Moreover, the LD50 at 720 h in series [1] was 430 mg/kg.

Turning to `CC(C)CO[C@H]1O[C@H](CN(CC(C)C)C(=O)N(CCCl)N=O)[C@H](O)[C@H](O)[C@H]1O` [Compound 107, 3-isobutyl-3-(isobutyl α-D-galactopyranose-6-yl)-1-(2-chloroethyl)-1-nitrosourea], in the series on Leukemia L1210, the ED (maximum ILS) worked out at 200 mg/kg, the ED30 came to 5.87 mg/kg, the “Survivors after 60 days” value is 3/6 and the “Max. ILS %” value is listed as more than 360%. Moreover, the “Therapeutic ratio TR” value with Leukemia L1210 came out at 34.1. For the same compound, the 50% lethal dose (LD50) at 720 h in series [1] is 650 mg/kg.

Take `Cc1ccc(CN(C[C@H]2O[C@H](OCC(C)C)[C@H](O)[C@@H](O)[C@H]2O)C(=O)N(CCCl)N=O)cc1` [Compound 111, 3-(p-methylbenzyl)-3-(isobutyl α-D-galactopyranose-6-yl)-1-(2-chloroethyl)-1-nitrosourea]: in the series on Leukemia L1210, the ED (maximum ILS) was 200 mg/kg, the ED30 came to 7.04 mg/kg, the “Survivors after 60 days” value was 3/6 and the “Max. ILS %” value is more than 345%. For the same compound, in the series with Leukemia L1210, the “Therapeutic ratio TR” value is listed as 28.4. Further, the LD50 at 720 h in series [1] was found to be 600 mg/kg.

Take `CC(C)CO[C@H]1O[C@H](CN(Cc2cccs2)C(=O)N(CCCl)N=O)[C@H](O)[C@H](O)[C@H]1O` [Compound 112, 3-(thiophene-2-yl-methyl)-3-(isobutyl α-D-galactopyranose-6-yl)-1-(2-chloroethyl)-1-nitrosourea]: in the series with Leukemia L1210, the ED (maximum ILS) came out at 180 mg/kg, the ED30 is 4.17 mg/kg, the “Survivors after 60 days” value is on record as 3/6 and the “Max. ILS %” value was more than 350%. In addition, the “Therapeutic ratio TR” value with Leukemia L1210 is listed as 43.2. The same compound returned an LD50 at 720 h in series [1] of 480 mg/kg.

The term LD50 denotes the dose expected to kill half of the subjects tested.
